In patent US20060189631A1, “Substituted imidazopyrimidines for the prevention and treatment of cancer” (LABORATORIOS S.A.L.V.A.T., S.A., priority 2003, published 2006):
pIC50: −log10 of the molar value.

Columns and labels:
[1] = system: human colon cancer cell lines HCT-116; assay: Determination of apoptosis (DNA fragmentation into nucleosomes, Cell Death Detection ELISA PLUS); format: cell-based; details: HCT-116, at 10 μM
Protocol: To stablish whether the antiproliferative activity of the compounds of the present invention is due to an apoptotic process, and not merely to a necrotic process, the generation of DNA fragments associated to histones (mono- and oligonucleosomes) was determined after incubation of the human colon cancer cell lines HCT-116 with the compounds of the present invention at different concentrations. DNA fragmentation into nucleosomes, which is an indicator of apoptosis phenomena, was quantified by a sandwich immunoassay using monoclonal antibodies directed against DNA and histones (Cell Death Detection ELISA^PLUS, Roche Diagnostics, cat #1920685). The quantity of fragmented DNA was expressed with the Enrichment Factor (EF) parameter, which is a coefficient of absorbance of nucleosomes liberated in the cytosol of the cells cultured in the presence of the products compared with control cells.

COX-2 = target: T1, COX-2 (Homo sapiens, UniProt P35354); assay: COX-2 inhibition; format: biochemical
T1 sequence (P35354 18-604): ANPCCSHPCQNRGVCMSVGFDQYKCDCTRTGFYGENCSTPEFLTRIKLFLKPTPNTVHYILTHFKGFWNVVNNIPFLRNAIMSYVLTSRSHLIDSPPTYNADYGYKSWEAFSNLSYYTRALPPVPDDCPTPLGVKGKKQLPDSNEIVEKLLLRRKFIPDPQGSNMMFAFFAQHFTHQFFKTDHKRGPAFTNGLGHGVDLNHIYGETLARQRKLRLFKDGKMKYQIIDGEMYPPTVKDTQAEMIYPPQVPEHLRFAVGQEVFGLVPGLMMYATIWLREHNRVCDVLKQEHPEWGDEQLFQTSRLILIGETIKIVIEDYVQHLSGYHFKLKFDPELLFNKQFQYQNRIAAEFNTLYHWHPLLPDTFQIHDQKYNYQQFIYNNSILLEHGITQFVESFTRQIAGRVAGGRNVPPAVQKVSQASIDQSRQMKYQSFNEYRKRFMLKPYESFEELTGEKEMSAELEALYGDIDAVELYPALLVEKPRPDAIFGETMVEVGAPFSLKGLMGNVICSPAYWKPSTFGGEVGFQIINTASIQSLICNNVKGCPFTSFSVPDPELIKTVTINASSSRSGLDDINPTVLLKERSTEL

[2] = system: human colon adenocarcinoma cell lines (HCT-116); assay: Determination of cell proliferation inhibition (Sulforodamine B); format: cell-based; details: HCT-116, 48 hours treatment
Protocol: The inhibitory capacity of cell proliferation of the compounds was determined in two human colon adenocarcinoma cell lines (HCT-116) obtained at the ATCC (American Type Collection). The cells were seeded in 96-well plates and kept at 37° C. in a CO2 heater for 24 hours to allow cell-substrate-adhesion. Subsequently, cells were treated with the products under study at concentrations comprised between 1 and 100 μM for 48 hours. After the treatment period, the medium was removed and cells were dyed with Sulforodamine B. Finally, decolouration of the dyed cells was carried out with Tris base 10 mM and the plates were read at 493-530 nm in a plate reader. IC50 was calculated as the product concentration inducing a growth inhibition of the 50% compared with control cells not treated.

| pIC50 (COX-2) | pIC50 [2] | SMILES | EF (Apoptosis induction, Enrichment Factor) [1] |
| --- | --- | --- | --- |
| < 4.60 | > 5.30 | COc1ccc(-c2nc3ncccn3c2-c2ccc3c(c2)C(C)(C)CCS3)cc1 [Example 244, 3-(4,4-Dimethylthiochroman-6-yl)-2-(4-methoxyphenyl)imidazo[1,2-a]pyrimidine] | +++ (EF > 6) |
|  | 4.60 to 5.30 | COc1ccc(-c2nc3nc(C)ccn3c2-c2ccc(SC)c(Cl)c2)cc1 [Example 125, 3-(3-Chloro-4-methylsulfanylphenyl)-2-(4-methoxyphenyl)-7-methylimidazo[1,2-a]pyrimidine] | +++ (EF > 6) |
| < 4.60 | > 5.30 | CSc1ccc(-c2c(-c3cccc(C)c3)nc3ncccn23)cc1Br [Example 132, 3-(3-Bromo-4-methylsulfanylphenyl)-2-m-tolylimidazo[1,2-a]pyrimidine] | +++ (EF > 6) |
| < 4.60 | > 5.30 | CSc1ccc(-c2c(-c3ccc(Cl)cc3)nc3ncccn23)cc1Br [Example 136, 3-(3-Bromo-4-methylsulfanylphenyl)-2-(4-chlorophenyl)imidazo[1,2-a]pyrimidine] | +++ (EF > 6) |
| < 4.60 | > 5.30 | CSc1ccc(-c2nc3ncccn3c2-c2ccc(SC(C)C)c(Cl)c2)cc1 [Example 157, 3-(3-Chloro-4-isopropylsulfanylphenyl)-2-(4-methylsulfanylphenyl)imidazo[1,2-a]pyrimidine] | +++ (EF > 6) |
| < 4.60 | < 4.60 | CC1=C(CC(=O)O)c2cc(F)ccc2/C1=C\c1ccc(S(C)(=O)=O)cc1 [Exisulind, reference compound] | + (EF < 3) |
| < 4.60 | > 5.30 | COc1ccc(-c2nc3ncccn3c2-c2ccc(SC(C)C)cc2)cc1 [Example 151, 3-(4-Isopropylsulfanylphenyl)-2-(4-methoxyphenyl)imidazo[1,2-a]pyrimidine] | +++ (EF > 6) |
| 4.60 to 5.30 | > 5.30 | COc1ccc(-c2nc3ncccn3c2-c2ccc(SC)cc2)cc1 [Example 8, 2-(4-Methoxyphenyl)-3-(4-methylsulfanylphenyl)imidazo[1,2-a]pyrimidine] | +++ (EF > 6) |
| < 4.60 | > 5.30 | COc1ccc(-c2nc3ncccn3c2-c2ccc(SC)c(C)c2)cc1 [Example 138, 2-(4-Methoxyphenyl)-3-(3-methyl-4-methylsulfanylphenyl)imidazo[1,2-a]pyrimidine] | +++ (EF > 6) |
| < 4.60 | > 5.30 | Cc1ccc(-c2nc3ncccn3c2-c2ccc(SC(C)C)c(Cl)c2)cc1 [Example 153, 3-(3-Chloro-4-isopropylsulfanylphenyl)-2-p-tolylimidazo[1,2-a]pyrimidine] | +++ (EF > 6) |
| < 4.60 | > 5.30 | CSc1ccc(-c2c(-c3ccc(Br)cc3)nc3ncccn23)cc1 [Example 13, 2-(4-Bromophenyl)-3-(4-methylsulfanylphenyl)imidazo[1,2-a]pyrimidine] | +++ (EF > 6) |
| < 4.60 | > 5.30 | COc1ccc(-c2nc3ncccn3c2-c2ccc(SC)c(Cl)c2)cc1 [Example 124, 3-(3-Chloro-4-methylsulfanylphenyl)-2-(4-methoxyphenyl)imidazo[1,2-a]pyrimidine] | +++ (EF > 6) |
| < 4.60 | > 5.30 | CSc1ccc(-c2c(-c3ccc(Cl)cc3)nc3ncccn23)cc1Cl [Example 238, 3-(3-Chloro-4-methylsulfanylphenyl)-2-(4-chlorophenyl)imidazo[1,2-a]pyrimidine] | +++ (EF > 6) |
|  | > 5.30 | CSc1ccc(-c2nc3ncccn3c2-c2ccc(SC)c(Cl)c2)cc1 [Example 86, 3-(3-Chloro-4-methylsulfanylphenyl)-2-(4-methylsulfanylphenyl)imidazo[1,2-a]pyrimidine] | +++ (EF > 6) |
| < 4.60 | > 5.30 | CCCSc1ccc(-c2c(-c3ccc(OC)cc3)nc3ncccn23)cc1Cl [Example 148, 3-(3-Chloro-4-propylsulfanylphenyl)-2-(4-methoxyphenyl)imidazo[1,2-a]pyrimidine] | +++ (EF > 6) |
|  | < 4.60 | Cc1ccc(-c2cc(C(F)(F)F)nn2-c2ccc(S(N)(=O)=O)cc2)cc1 [Celecoxib, reference compound] | + (EF < 3) |
| < 4.60 | 4.60 to 5.30 | CSc1ccc(-c2c(-c3ccc(F)cc3)nc3ncccn23)cc1Cl [Example 240, 3-(3-Chloro-4-methylsulfanylphenyl)-2-(4-fluorophenyl)imidazo[1,2-a]pyrimidine] | ++ (3 < EF < 6) |
| < 4.60 | 4.60 to 5.30 | COc1ccc(-c2nc3ncccn3c2-c2ccc([S+](C)[O-])c(Cl)c2)cc1 (stereo not drawn) [Example 189, 3-(3-Chloro-4-methanesulfinylphenyl)-2-(4-methoxyphenyl)imidazo[1,2-a]pyrimidine] | +++ (EF > 6) |
